Results taken from the supplement of paper PMC10307832.

Assays:
Experiment in all cases: relative viability (nuclei count vs DMSO), 5 days (fraction); higher = more cells survive
Ispinesib + Navitoclax = compound: Cc1ccc(C(=O)N(CCCN)[C@@H](c2nc3cc(Cl)ccc3c(=O)n2Cc2ccccc2)C(C)C)cc1 [Ispinesib] + CC1(C)CCC(c2ccc(Cl)cc2)=C(CN2CCN(c3ccc(C(=O)NS(=O)(=O)c4ccc(N[C@H](CCN5CCOCC5)CSc5ccccc5)c(S(=O)(=O)C(F)(F)F)c4)cc3)CC2)C1 [Navitoclax] (partner 0.5 µM)
Summary of the method: (§1)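 Lung cancer cell lines in 1536-well plates were dosed by pin tool the day after seeding, either with one drug alone or with a fixed anchor-drug dose plus five library-drug doses (not always all listed) in √10 steps. After 5 days, cells were fixed and their nuclei stained in one step (final 0.05% Triton X-100, 1% formaldehyde, 1 ug/ml Hoechst), then counted on 4× images. Relative viability is the nuclei count in treated wells divided by that in vehicle wells. Values are medians of duplicate plates.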

Ispinesib + Dasatinib = compound: Cc1ccc(C(=O)N(CCCN)[C@@H](c2nc3cc(Cl)ccc3c(=O)n2Cc2ccccc2)C(C)C)cc1 [Ispinesib] + Cc1nc(Nc2ncc(C(=O)Nc3c(C)cccc3Cl)s2)cc(N2CCN(CCO)CC2)n1 [Dasatinib] (partner 0.075 µM)
Summary of the method: as §1

Ispinesib + Linsitinib = compound: Cc1ccc(C(=O)N(CCCN)[C@@H](c2nc3cc(Cl)ccc3c(=O)n2Cc2ccccc2)C(C)C)cc1 [Ispinesib] + C[C@]1(O)C[C@@H](c2nc(-c3ccc4ccc(-c5ccccc5)nc4c3)c3c(N)nccn32)C1 [Linsitinib] (partner 1 µM)
Summary of the method: as §1

Ispinesib + Phenformin = compound: Cc1ccc(C(=O)N(CCCN)[C@@H](c2nc3cc(Cl)ccc3c(=O)n2Cc2ccccc2)C(C)C)cc1 [Ispinesib] + N=C(N)NC(=N)NCCc1ccccc1 [Phenformin] (partner 250 µM)
Summary of the method: as §1

Cell Line	relative viability (Ispinesib + Navitoclax; first compound 0.001 µM)	relative viability (Ispinesib + Navitoclax; first compound 0.003162 µM)	relative viability (Ispinesib + Navitoclax; first compound 0.01 µM)	relative viability (Ispinesib + Navitoclax; first compound 0.03162 µM)	relative viability (Ispinesib + Navitoclax; first compound 0.1 µM)	relative viability (Ispinesib + Dasatinib; first compound 0.001 µM)	relative viability (Ispinesib + Dasatinib; first compound 0.003162 µM)	relative viability (Ispinesib + Dasatinib; first compound 0.01 µM)	relative viability (Ispinesib + Dasatinib; first compound 0.03162 µM)	relative viability (Ispinesib + Dasatinib; first compound 0.1 µM)	relative viability (Ispinesib + Linsitinib; first compound 0.001 µM)	relative viability (Ispinesib + Linsitinib; first compound 0.003162 µM)	relative viability (Ispinesib + Linsitinib; first compound 0.01 µM)	relative viability (Ispinesib + Linsitinib; first compound 0.03162 µM)	relative viability (Ispinesib + Linsitinib; first compound 0.1 µM)	relative viability (Ispinesib + Phenformin; first compound 0.001 µM)	relative viability (Ispinesib + Phenformin; first compound 0.003162 µM)	relative viability (Ispinesib + Phenformin; first compound 0.01 µM)	relative viability (Ispinesib + Phenformin; first compound 0.03162 µM)	relative viability (Ispinesib + Phenformin; first compound 0.1 µM)
NCI-H1944	0.994	1.09	1.02	0.785	0.806	0.214	0.266	0.211	0.184	0.104	1.24	1.38	1.18	0.975	0.979	0.199	0.247	0.206	0.167	0.106
A-427	0.938	0.995	1.06	0.827	0.903	0.668	0.793	0.817	0.396	0.161	1.15	1.13	1.15	1.21	1.12	0.377	0.415	0.333	0.168	0.158
NCI-H520	1.02	1.14	1.04	0.274	0.286	0.164	0.229	0.178	0.152	0.198	1.13	0.957	1.08	0.245	0.232	0.535	0.571	0.382	0.251	0.222
COR-L 105	0.722	0.824	0.676	0.464	0.345	0.462	0.303	0.31	0.195	0.238	0.985	0.993	0.814	0.492	0.26	0.602	0.455	0.366	0.216	0.258
NCI-H1755	1.01	1.15	1.09	0.917	0.7	0.391	0.453	0.387	0.352	0.237	1.03	1.1	1.14	0.906	0.422	0.553	0.646	0.638	0.463	0.195
NCI-H2085	1.12	1.17	1.19	1.13	0.672	0.228	0.225	0.242	0.261	0.206	0.954	1.01	0.904	0.777	0.605	0.751	0.692	0.75	0.474	0.278
NCI-H2023	1.07	1.09	1.1	0.837	0.21	0.693	0.613	0.613	0.306	0.146	0.79	0.74	0.627	0.439	0.149	0.484	0.479	0.384	0.187	0.154
HOP-62	1.19	1.12	1.53	1.12	0.171	0.815	0.824	0.837	0.534	0.251	0.99	1.14	0.952	1.05	0.742	0.774	0.728	0.709	0.632	0.225
